From patent US4740233A, “Substituted 1,2,4-triazolo[1,5-a]-pyrimidine-2-sulfonamides and compositions and methods of controlling undesired vegetation and suppressing the nitrification of ammonium nitrogen in soil” (The Dow Chemical Company, priority 1986, dated 1988)

Legend:
rice [1] = assay: Control of aquatic plant species (paddy water); type: in vivo, Oryza sativa; details: Oryza sativa, 216 h, nine days, read-out: Percent control
Method: (§1) In testing for such utility, the plant species to be tested were transplanted into 16 oz. containers into about 2 inches of soil when they were in the 1-2 inch stage and then flooded to a depth of about 1 inch. An acetone concentrate of the chemical to be tested was then injected into the paddy water, the volume injected being varied as desired to provide the desired concentration. Percent control was evaluated nine days after application.

sprangletop = assay: Control of aquatic plant species (paddy water); type: in vivo, Leptochloa filiformis; details: Leptochloa filiformis, 216 h, nine days, read-out: Percent control
Method: as §1

[2] = test system: nitrification of ammonium nitrogen; assay: Suppression of nitrification of ammonium nitrogen in soil; details: 27° C.
How it was run: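 Soil (20 g) moistened to its 1/3 bar tension value, mixed with test chemical and incubated sealed for two weeks at 27° C. Nitrate extracted with ammonium sulfate solution and measured by nitrate-specific ion electrode; value given as % NH4-N remaining.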

yellow nutsedge [3] = assay: Control of aquatic plant species (paddy water); type: in vivo, Cyperus esculentus; details: Cyperus, 216 h, nine days, read-out: Percent control
Method: as §1

barnyardgrass [4] = assay: Control of aquatic plant species (paddy water); type: in vivo, Echinochloa crusgalli; details: Echinochloa crus-galli, 216 h, nine days, read-out: Percent control
Method: as §1

rape = assay: Postemergent control of plant species; type: in vivo, Brassica napus; details: Brassica napus, post-emergence, 336 h, read-out: percent postemergent control
Method: (§2) In representative operations, each compound to be utilized in a series of tests is dissolved in acetone to one-half of the final volume (twice the final concentration) to be used and the acetone solution in each case is admixed with an equal volume of water containing 0.1 percent by weight of surface active material. The compositions, generally in the nature of an emulsion, were employed to spray separate respective plant species which had been grown to a 2-4 leaf stage in soil of good nutrient content in a greenhouse. The various beds were positioned side by side and exposed to substantially identical conditions of temperature and light. Each bed was maintained so as to prevent any interaction with test compounds in different seed beds. Other plants were left untreated to serve as controls. After treatment, the plants were maintained for about two weeks under greenhouse conditions conducive for good plant growth and watered as necessary. Control refers to the reduction in growth compared to the observed results of the same untreated species.

soybean = assay: Postemergent control of plant species; type: in vivo, Glycine max.; details: Glycine max, post-emergence, 336 h, read-out: percent postemergent control
Method: as §2

barnyardgrass [5] = assay: Postemergent control of plant species; type: in vivo, Echinochloa crusgalli; details: Echinochloa crus-galli, post-emergence, 336 h, read-out: percent postemergent control
Method: as §2

sorghum = assay: Postemergent control of plant species; type: in vivo, Sorghum vulgare; details: Sorghum, post-emergence, 336 h, read-out: percent postemergent control
Method: as §2

cotton = assay: Postemergent control of plant species; type: in vivo, Gossypium spp.; details: Gossypium hirsutum, post-emergence, 336 h, read-out: percent postemergent control
Method: as §2

annual morning glory = assay: Postemergent control of plant species; type: in vivo, Ipomoea spp.; details: Ipomoea, post-emergence, 336 h, read-out: percent postemergent control
Method: as §2

yellow foxtail = assay: Postemergent control of plant species; type: in vivo, Setaria lutescens; details: Setaria, post-emergence, 336 h, read-out: percent postemergent control
Method: as §2

velvetleaf = assay: Postemergent control of plant species; type: in vivo, Abutilon theophrasti; details: Abutilon theophrasti, post-emergence, 336 h, read-out: percent postemergent control
Method: as §2

sugar beet = assay: Postemergent control of plant species; type: in vivo, Beta saccharifera; details: Beta vulgaris, post-emergence, 336 h, read-out: percent postemergent control
Method: as §2

corn = assay: Postemergent control of plant species; type: in vivo, Zea mays; details: Zea mays, post-emergence, 336 h, read-out: percent postemergent control
Method: as §2

wheat = assay: Postemergent control of plant species; type: in vivo, Triticum aestivum; details: Triticum aestivum, post-emergence, 336 h, read-out: percent postemergent control
Method: as §2

yellow nutsedge [6] = assay: Postemergent control of plant species; type: in vivo, Cyperus esculentus; details: Cyperus, post-emergence, 336 h, read-out: percent postemergent control
Method: as §2

wild oats = assay: Postemergent control of plant species; type: in vivo, Avena fatua; details: Avena fatua, post-emergence, 336 h, read-out: percent postemergent control
Method: as §2

jimsonweed = assay: Postemergent control of plant species; type: in vivo, Datura stramonium; details: Datura stramonium, post-emergence, 336 h, read-out: percent postemergent control
Method: as §2

johnson grass = assay: Postemergent control of plant species; type: in vivo, Sorghum halepense; details: Sorghum halepense, post-emergence, 336 h, read-out: percent postemergent control
Method: as §2

crabgrass = assay: Postemergent control of plant species; type: in vivo, Digitaria spp.; details: Digitaria sanguinalis, post-emergence, 336 h, read-out: percent postemergent control
Method: as §2

rice [7] = assay: Postemergent control of plant species; type: in vivo, Oryza sativa; details: Oryza sativa, post-emergence, 336 h, read-out: percent postemergent control
Method: as §2

cocklebur = assay: Postemergent control of plant species; type: in vivo, Xanthium spp.; details: Xanthium strumarium, post-emergence, 336 h, read-out: percent postemergent control
Method: as §2

pigweed = assay: Postemergent control of plant species; type: in vivo, Amaranthus spp.; details: Amaranthus retroflexus, post-emergence, 336 h, read-out: percent postemergent control
Method: as §2

Row | Structure (SMILES) | % NH4-N Remaining After 2 Weeks Incubation ([2]; 0.06 ppm) [%] | % NH4-N Remaining After 2 Weeks Incubation ([2]; 0.25 ppm) [%] | % NH4-N Remaining After 2 Weeks Incubation ([2]; 1 ppm) [%] | plant injury at 500 ppm (rape) [%] | plant injury at 500 ppm (soybean) [%] | pest or weed control at 500 ppm (barnyardgrass [5]) [%] | plant injury at 500 ppm (sorghum) [%] | pest or weed control at 500 ppm (annual morning glory) [%] | pest or weed control at 500 ppm (yellow foxtail) [%] | % NH4-N Remaining After 2 Weeks Incubation ([2]; 0.01 ppm) [%] | % NH4-N Remaining After 2 Weeks Incubation ([2]; 0.1 ppm) [%] | % NH4-N Remaining After 2 Weeks Incubation ([2]; 10 ppm) [%] | pest or weed control at 500 ppm (velvetleaf) [%] | plant injury at 500 ppm (sugar beet) [%] | plant injury at 500 ppm (corn) [%] | plant injury at 500 ppm (wheat) [%] | pest or weed control at 500 ppm (yellow nutsedge [6]) [%] | pest or weed control at 500 ppm (wild oats) [%] | pest or weed control at 500 ppm (jimsonweed) [%] | pest or weed control at 500 ppm (johnson grass) [%] | further results
1 | Cc1cc(C)n2nc(S(=O)(=O)Nc3c(F)cccc3Cl)nc2n1 [Compound 54] | 20 | 51 | 66 | – | – | – | – | – | – | – | – | – | – | – | – | – | – | – | – | – | pest or weed control at 500 g/ha (rice [1]; 0.5 Kg/Ha): 97%; pest or weed control at 500 g/ha (sprangletop; 0.5 Kg/Ha): 0%; % NH4-N Remaining After 2 Weeks Incubation ([2]; 4 ppm): 76%; pest or weed control at 500 g/ha (yellow nutsedge [3]; 0.5 Kg/Ha): 95%; pest or weed control at 500 g/ha (barnyardgrass [4]; 0.5 Kg/Ha): 97%
2 | Cc1cc(C)n2nc(S(=O)(=O)Nc3ccccc3S(=O)(=O)N(C)C)nc2n1 [Compound 15] | 1 | 23 | 54 | – | – | – | – | – | – | – | – | – | – | – | – | – | – | – | – | – | pest or weed control at 4000 g/ha (rice [1]; 4.0 Kg/Ha): 35%; pest or weed control at 4000 g/ha (sprangletop; 4.0 Kg/Ha): 0%; % NH4-N Remaining After 2 Weeks Incubation ([2]; 0.125 ppm): 0%; % NH4-N Remaining After 2 Weeks Incubation ([2]; 0.5 ppm): 42%; pest or weed control at 4000 g/ha (yellow nutsedge [3]; 4.0 Kg/Ha): 70%; pest or weed control at 4000 g/ha (barnyardgrass [4]; 4.0 Kg/Ha): 25%
3 | Cc1ccc(NS(=O)(=O)c2nc3nc(C)cc(C)n3n2)c(Cl)c1 [Compound 48] | – | – | 56 | 75 | 55 | 0 | 0 | 60 | 0 | 0 | 3 | 93 | 40 | 70 | 0 | 0 | 0 | 0 | 30 | 0 | plant injury at 500 ppm (cotton): 10%; pest or weed control at 500 ppm (crabgrass): 0%; plant injury at 500 ppm (rice [7]): 0%; pest or weed control at 500 ppm (cocklebur): 70%
4 | CSc1ccccc1NS(=O)(=O)c1nc2nc(C)cc(C)n2n1 [Compound 9] | – | – | 59 | – | – | – | – | – | – | 0 | 14 | 88 | – | – | – | – | – | – | – | – | pest or weed control at 250 g/ha (rice [1]; 0.25 Kg/Ha): 0%; pest or weed control at 1000 g/ha (rice [1]; 1.0 Kg/Ha): 25%; pest or weed control at 250 g/ha (sprangletop; 0.25 Kg/Ha): 80%; pest or weed control at 1000 g/ha (sprangletop; 1.0 Kg/Ha): 97%; pest or weed control at 250 g/ha (yellow nutsedge [3]; 0.25 Kg/Ha): 30%; pest or weed control at 1000 g/ha (yellow nutsedge [3]; 1.0 Kg/Ha): 85%; pest or weed control at 250 g/ha (barnyardgrass [4]; 0.25 Kg/Ha): 93%; pest or weed control at 1000 g/ha (barnyardgrass [4]; 1.0 Kg/Ha): 99%
5 | Cc1ccn2nc(S(=O)(=O)N(C(=O)N(C)C)c3c(Cl)cccc3Cl)nc2n1 [Compound 273] | – | – | – | 100 | 40 | 20 | 40 | 80 | 75 | – | – | – | 50 | 100 | 0 | 0 | 40 | 0 | 100 | 30 | pest or weed control at 500 ppm (pigweed): 100%; pest or weed control at 500 ppm (crabgrass): 100%; plant injury at 500 ppm (rice [7]): 20%; pest or weed control at 500 ppm (cocklebur): 40%
